Results as given in US6664285B1, “Use of cell membrane penetrating indigoid bisindole derivatives” (priority 1999, dated 2003).
Blank lines part the entries; values can stand above or below the compound they belong to.

Legend:
[1] = system: HT29X (colon); experiment: Colony-forming assay; type: cell-based, human; conditions: colon HT29X; for IC50: Homo sapiens, read-out: IC50 colony formation
Description: (§1) The experiments were conducted using various tumor cell lines, in particular mammary carcinoma (MAXF), lung adenocarcinoma (LXFA), large-cell lung carcinoma (LXFL), small-cell lung carcinoma (LXFS), colon carcinoma (CXF), melanoma (MEXF), pancreatic carcinoma (PAXF), renal carcinoma (RXF), ovarian carcinoma (OVXF) and bladder carcinoma (BXF).

[2] = system: CXF280 (colon); experiment: Colony-forming assay; type: cell-based, human; conditions: for IC50: Homo sapiens, read-out: IC50 colony formation
Description: as §1

[3] = system: human tumor xenograft LXFL 529; experiment: In vivo testing in nude mice bearing subcutaneous tumor xenograft
Description: Compound of Examples 1, 4, 6, 8, 9 and 10 were subjected to in vivo testing in nude mice bearing subcutaneously growing human tumor xenograft LXFL 529. The indigoid bisindole derivatives were applied intraperitoneally to the animals in doses and according to the schedule as described in Table 4.
The experiments were run for 21 or 28 days. Anti-tumor activity was evaluated comparing the median tumor volume relative to control, expressed as %T/C, wherein T is the test group and C the vehicle control group. In Table 4, anti-tumor activity is given according to an activity rate scale.

[4] = system: BXF1299 (bladder); experiment: Colony-forming assay; type: cell-based, human
Description: as §1

[5] = system: LXFS650 (lung small-cell); experiment: Colony-forming assay; type: cell-based, human; conditions: for IC50: Homo sapiens, read-out: IC50 colony formation
Description: as §1

[6] = system: MX1 (mammary); experiment: Colony-forming assay; type: cell-based, human; conditions: for IC50: Homo sapiens, read-out: IC50 colony formation
Description: as §1

[7] = Solubility; type: physicochemical
[8] = system: large-cell lung carcinoma xenograft line LXFL 529 L; experiment: Tumor cell growth inhibition, sulforhodamine B (SRB) assay; type: cell-based, human; conditions: LXFL529L; three days incubation, serum containing medium
[9] = system: LXFL 529L cells; experiment: Cellular uptake into LXFL 529L cells; conditions: LXFL 529L cells
Description: The compounds of Examples 1, 6 and 8 and Comparative Examples 1 and 2 were investigated with respect to their ability to penetrate LXFL 529L cells having the passage numbers P23 to P39. The amounts of the substances taken up by the cells are given depending on the concentration of the substance within the incubation medium. The time of incubation was 2 hours in all of the experiments. Furthermore, the distribution of the substance which was taken up by the cells in the cytosol and the cellular organelles (particular) was estimated and is given in the intermediate column of Table 2. Tumor cell growth inhibition was determined by the sulfo-rhodamine B assay (SRB assay) according to Skehan et al., J. Natl. Cancer Institute 82, pages 1107-1112 (1990). Incubation was conducted for three days in serum containing medium. Tumor cell lines tested were a large-cell lung carcinoma xenograft line LXFL 529 L and the mammary carcinoma line MCF-7.

[10] = system: mammary carcinoma line MCF-7; experiment: Tumor cell growth inhibition, sulforhodamine B (SRB) assay; type: cell-based, human; conditions: MCF7; three days incubation, serum containing medium
[11] = system: various tumor cell lines (all); experiment: Colony-forming assay, all tumor xenografts; type: cell-based, human
Source text: The compounds according to the inventive Examples show good to excellent anti-tumor activity against various types of tumor cell lines.

[12] = system: LXFL529 (lung large-cell); experiment: Colony-forming assay; type: cell-based, human
Description: as §1

[13] = system: OVXF1355 (ovarian); experiment: Colony-forming assay; type: cell-based, human
Description: as §1

[14] = system: BXF1301 (bladder); experiment: Colony-forming assay; type: cell-based, human
Description: as §1

[15] = system: MCF7X (mammary); experiment: Colony-forming assay; type: cell-based, human
Description: as §1

[16] = system: PAXF736 (pancreatic); experiment: Colony-forming assay; type: cell-based, human
Description: as §1

[17] = system: MEXF989 (melanoma); experiment: Colony-forming assay; type: cell-based, human
Description: as §1

[18] = system: PAXF546 (pancreatic); experiment: Colony-forming assay; type: cell-based, human
Description: as §1

[19] = Homo sapiens, read-out: IC50 colony formation

IC50 [1]: 1600 nM
IC50 [2]: < 1000 nM
IC50 [4, 19]: 2700 nM
IC50 [5]: 4.7 µM
IC50 [6]: 2800 nM
Compound: c1ccc(-c2c(-c3[nH]c4ccccc4c3-c3ccccc3)[nH]c3ccccc23)cc1 [Example 14, Bis(3-phenylindol-2-yl)]
IC70 colony formation [1]: 3.4 µM
IC70 colony formation [2]: 7.2 µM
activity rating ([3]; 10 mg/kg/day i.p., days 1-5, 8-12): − (inactive T/C > 50%)
activity rating ([3]; 100 mg/kg/day i.p., days 1-5, 8-12): + (tumor inhibition T/C > 25-50%)
activity rating ([3]; 300 mg/kg/day i.p., days 1-5, 8-12): + (tumor inhibition T/C > 25-50%)
IC70 colony formation [4]: 6.2 µM
IC70 colony formation [5]: 6.7 µM
IC70 colony formation [6]: 4.8 µM

solubility in physiological solutions (in words) [7]: well soluble in physiological solutions
IC50 [8]: > 100 µM
uptake by the tumor cells (in words) [9]: essentially not taken up by the cells
IC50 [10]: > 100 µM
Compound: O=C1Nc2ccc(S(=O)(=O)O)cc2C1=C1Nc2ccccc2C1=NO [Comparative Example 2, Indirubin-3′-oxime-5-sulfonic acid, reference compound]

solubility in physiological solutions (in words) [7]: well soluble in physiological solutions
IC50 [8]: > 100 µM
uptake by the tumor cells (in words) [9]: essentially not taken up by the cells
IC50 ([11]; tumor xenograft type (all), read-out: IC50 colony formation): > 30 µM
IC50 [10]: > 100 µM
Compound: O=C1Nc2ccc(S(=O)(=O)O)cc2C1=C1Nc2ccccc2C1=O [Comparative Example 1, Indirubin-5-sulfonic acid, reference compound]
IC70 colony formation ([11]; tumor xenograft type (all)): >30.0 µM
anti-tumor activity (in words) ([11]; various types of tumor cell lines): does not exhibit an anti-tumor activity against any of the tumor lines

IC50 ([12]; Homo sapiens, LXFL 529, read-out: IC50 colony formation): 2600 nM
IC50 [1]: < 1000 nM
IC50 [2]: < 1000 nM
IC50 [13, 19]: < 1000 nM
IC50 [14, 19]: 6 µM
IC50 [15, 19]: < 1000 nM
IC50 [16, 19]: < 1000 nM
IC50 [5]: < 1 µM
IC50 ([17]; Homo sapiens, MEXF 989, read-out: IC50 colony formation): < 1000 nM
IC50 [6]: < 1000 nM
IC50 [18, 19]: < 1000 nM
Compound: O=C1Nc2ccccc2/C1=C1\C(=O)Nc2ccccc21 [Example 10, Isoindigo]
IC70 colony formation [12]: 4.5 µM
IC70 colony formation [1]: <1.0 µM
IC70 colony formation [2]: <1.0 µM
IC70 colony formation [13]: <1.0 µM
activity rating ([3]; 30 mg/kg/day i.p., days 1-5): − (inactive T/C > 50%)
activity rating ([3]; 100 mg/kg/day i.p., days 1-5): − (inactive T/C > 50%)
activity rating ([3]; 300 mg/kg/day i.p., days 1-5): + (tumor inhibition T/C > 25-50%)
IC70 colony formation [14]: 8.2 µM
IC70 colony formation [15]: <1.0 µM
IC70 colony formation [16]: <1.0 µM
IC70 colony formation [5]: <1.0 µM
IC70 colony formation [17]: <1.0 µM
IC70 colony formation [6]: <1.0 µM
IC70 colony formation [18]: <1.0 µM
